Data published in patent US4061542A, “2-Methyl-L-arginine produced by cultivating streptomyces strain” (Hoffmann-La Roche Inc., priority 1976, dated 1977).
Where two headings read alike, the source gives them in different places.

Tests used:
[1] = Acute toxicity (LD50) in mice; format: in vivo; conditions: mouse, in vivo, mice
ornithine decarboxylase [2] = conditions: in words; comparison substance; cited from earlier work
spermidine production [3] = conditions: in words; comparison substance; cited from earlier work
males [4] = conditions: administered to males; comparison substance; cited from earlier work
Escherichia coli B = test: Paper-disc agar-diffusion assay (Scannell et al.), Escherichia coli B as test organism, minimal agar medium; format: cell-based
Excerpt: (§1) The anti-microbial properties of the compound of the formula I and its salts are shown by the paper-disc agar-diffusion assay as described by Scannell et al. J. Antibiotics 25: 179-184 (1972). In this assay, Escherichia coli B as test organism, the minimal agar medium described by Scanell et al. was employed for the initial detection and during isolation of the antimetabolite. Similar to N^5 -hydroxy-L-arginine, the diameter of the inhibition zone was proportional to the logarithm of concentration of the compound of formula I within the range of 2 to about 100 λg/ml. A two-fold increase of the concentration of the compound of formula I increased the inhibition zone diameter by 3 mm and a […] solution gave a zone of about 36 mm.
(§2) (ATCC 27860) as againt E. coli.

[5] = system: Bacillus sp. (ATCC 27860); test: Antibiotic activity against Bacillus sp. (ATCC 27860); format: cell-based
Excerpt: as §1, §2

mice = test: Acute toxicity (LD50) in mice; format: in vivo; conditions: in words
ornithine decarboxylase [6] = test: Inhibition of ornithine decarboxylase; format: biochemical; conditions: in words; no test data given
spermidine production [7] = test: Suppression of spermidine production; conditions: in words; no test data given
males [8] = test: Anti-fertility activity when administered to males; format: in vivo; conditions: in words, no test data given

C[C@](N)(CCCNC(=N)N)C(=O)O
LD50 ([1]; ip): > 1000 mg/kg | LD50 ([1]; po): > 1000 mg/kg

CC(N)(CCCN)C(=O)O (racemic) [D,L-2-methyl ornithine]
inhibition of ornithine decarboxylase (ornithine decarboxylase [2]): inhibitor of ornithine decarboxylase | suppression of spermidine production (spermidine production [3]): suppresses spermidine production | anti-fertility activity (males [4]): anti-fertility agent

C[C@](N)(CCCNC(=N)N)C(=O)O [compound of formula I, 2-methyl-L-arginine]
reversal of antibiotic activity against Escherichia coli (Escherichia coli B; by added amino acids): reversed by L-arginine, L-citrulline, L-ornithine and N^2 -acetyl-L-ornithine | activity against Escherichia coli B (Escherichia coli B; in words): active | increase of inhibition zone diameter on two-fold increase of concentration (Escherichia coli B; two-fold increase of the concentration, Escherichia coli B): 3 mm | activity against Bacillus s.p. ([5]; in words): active | level of activity against Bacillus sp. (ATCC 27860) compared with E. coli ([5]; relative to E. coli): approximately the same level of activity | toxicity to vertebrates (mice): relatively non-toxic

C[C@](N)(CCCN)C(=O)O [L-2-methyl ornithine, 2-methyl-L-ornithine]
inhibition of ornithine decarboxylase (ornithine decarboxylase [6]): inhibitor of ornithine decarboxylase | suppression of spermidine production (spermidine production [7]): suppresses spermidine production | anti-fertility activity (males [8]): anti-fertility agent
